The record followed here is ChEMBL document CHEMBL1201862, “PubChem BioAssay data set” (2004).

Molecules are shown by their SMILES.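 These data come from cells grown in 96-well plates and exposed to compound for 48 hours at five concentrations. GI50: concentration for 50% inhibition of growth.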 Activity calls are given as the source filed them. No stated cut-off is given here; in the data, active = GI50 up to about 1.1 µM and inactive = higher. Bounds are passed on as bounds.

Test systems include COLO 205; HCT-116; HL-60; HOP-62; K562; M14; NCI-H226; NCI-H460; RPMI-8226; SF-268; SK-MEL-28; SW-620; CAKI-1; HOP-92; SK-MEL-5; HT-29.
Assay in all cases: DTP human tumour cell line panel, 48 h

Broadly, the GI50 is the concentration that inhibits growth by half. As to `C=CCC1(CC)C(=O)NC(=O)NC1=O` [ETALLOBARBITAL], the GI50 in the experiment on COLO 205, in the experiment with HCT-116, with HL-60, in the experiment on HOP-62, with K562 and in the experiment on M14 was > 100 µM (inactive) in each case. Moreover, the GI50 in the experiment with NCI-H226, in the experiment with NCI-H460, with RPMI-8226, in the experiment with SF-268, in the experiment with SK-MEL-28 and in the experiment on SW-620 was > 100 µM (inactive) throughout.
Turning to `Cc1cccc(N2C(=O)C(=O)C(c3nc4ccccc4s3)/C(=N/NC(=S)NN)C2=O)c1C` (stereo not drawn), the GI50 in the experiment on CAKI-1, with COLO 205, with HCT-116, in the experiment on HOP-62, in the experiment on HOP-92 and in the experiment on K562 was > 100 µM (inactive) in each case. In addition, the GI50 in the experiment on M14, in the experiment on NCI-H226, with NCI-H460, in the experiment with RPMI-8226, in the experiment on SF-268 and in the experiment with SK-MEL-28 was > 100 µM (inactive) in each case. For the same compound, the GI50 with SK-MEL-5 and with SW-620 was > 100 µM (inactive) each time.
`CCCCC1(C)C=C/C(=C2/C(=O)O/C(=C\C(=O)O)C2=O)O1` (stereo not drawn): the GI50 with COLO 205, in the experiment on HCT-116, in the experiment with HL-60, in the experiment on HOP-62, in the experiment on HT-29 and in the experiment with K562 was > 100 µM (inactive) in each case. Moreover, the GI50 in the experiment with M14, with NCI-H226, in the experiment with NCI-H460, with RPMI-8226, in the experiment on SK-MEL-28 and in the experiment with SK-MEL-5 was > 100 µM (inactive) each time. Besides, the GI50 with SW-620 was > 100 µM (inactive).
`CC(/C(=N/NC(=O)C(N)=O)c1c(Cl)ccc(Cl)c1O)C1(O)C(=O)Nc2ccccc21` (stereo not drawn): the GI50 is 42.1 µM (inactive) in the experiment with CAKI-1; 23.2 µM (inactive) in the experiment with COLO 205; 41 µM (inactive) in the experiment with HCT-116; 26 µM (inactive) in the experiment on HL-60; > 100 µM (inactive) with HOP-62; 27.8 µM (inactive) in the experiment on HOP-92. Further, the GI50 is 39.5 µM (inactive) in the experiment on HT-29; 31 µM (inactive) in the experiment on K562; 68.7 µM (inactive) with M14; 29.3 µM (inactive) in the experiment with NCI-H226; 28.3 µM (inactive) in the experiment with NCI-H460; > 100 µM (inactive) in the experiment with SF-268. In addition, the values for the GI50 in the experiment on SK-MEL-28, with SK-MEL-5 and with SW-620 were > 100 µM (inactive), 34.6 µM (inactive) and 41.7 µM (inactive), respectively.
`O=c1c2cc(Br)ccc2nc(-c2ccccc2Cl)n1NCC1(O)OCC(O)C(O)C1O` (stereo not drawn): the GI50 was > 100 µM (inactive) in the experiment with CAKI-1; > 100 µM (inactive) with COLO 205; > 100 µM (inactive) with HCT-116; 33.6 µM (inactive) with HL-60; > 100 µM (inactive) in the experiment with HOP-62; > 100 µM (inactive) in the experiment on HT-29. For the same compound, the GI50 in the experiment on K562 is > 100 µM (inactive); with M14, > 100 µM (inactive); in the experiment on NCI-H226, 0.434 µM (active); in the experiment on NCI-H460, > 100 µM (inactive); in the experiment with RPMI-8226 it was 99.1 µM (inactive); in the experiment on SF-268, > 100 µM (inactive). The GI50 in the experiment with SK-MEL-28, in the experiment with SK-MEL-5 and with SW-620 was > 100 µM (inactive) in each case.
In the case of `O=[N+]([O-])c1cccc(C2ON2C2CCCCC2)c1` (stereo not drawn), the GI50 was 24.2 µM (inactive) in the experiment on CAKI-1; 17.6 µM (inactive) in the experiment on COLO 205; 13.5 µM (inactive) in the experiment on HCT-116; 17.5 µM (inactive) in the experiment with HL-60; 31.1 µM (inactive) with HOP-62; 45.9 µM (inactive) in the experiment with HOP-92. Besides, the GI50 in the experiment on HT-29 was 11.5 µM (inactive); in the experiment with K562, 14.4 µM (inactive); in the experiment with M14 it was 18.5 µM (inactive); in the experiment on NCI-H460, 17.5 µM (inactive); in the experiment with RPMI-8226 it was 2.94 µM (inactive); with SF-268 it was 23.3 µM (inactive). The values for the GI50 with SK-MEL-28, in the experiment with SK-MEL-5 and in the experiment on SW-620 were 36.9 µM (inactive), 17.7 µM (inactive) and 10 µM (inactive), respectively.
With `COC(=O)/C(C#N)=C1\CCC(C(=O)OC)N1C` (stereo not drawn), the GI50 in the experiment with CAKI-1, in the experiment with COLO 205, in the experiment with HCT-116, with HL-60, in the experiment on HOP-62 and in the experiment on HOP-92 was > 100 µM (inactive) in each case. The GI50 in the experiment with K562, in the experiment on M14, in the experiment with NCI-H460, in the experiment with RPMI-8226, in the experiment with SF-268 and in the experiment with SK-MEL-28 was > 100 µM (inactive) throughout. Also, in the experiment with SK-MEL-5, the GI50 is > 100 µM (inactive).
Turning to `OCc1c[te]c(-c2ccccc2)c1`, the GI50 in the experiment on CAKI-1 was 47.4 µM (inactive); in the experiment on HCT-116, 17.5 µM (inactive); in the experiment on HL-60, 12.6 µM (inactive); in the experiment with HOP-62, 32.2 µM (inactive); in the experiment on HT-29, > 10 µM (inactive); with K562, 38.5 µM (inactive). In addition, the GI50 was 84.7 µM (inactive) in the experiment on M14; 24.9 µM (inactive) in the experiment on NCI-H226; 31 µM (inactive) with NCI-H460; 24 µM (inactive) in the experiment with RPMI-8226; 63.1 µM (inactive) with SK-MEL-28; 30.7 µM (inactive) in the experiment on SK-MEL-5. Besides, in the experiment on SW-620, the GI50 was > 100 µM (inactive).
As to `C(=N\Nc1ccccc1)/c1nc2ccccc2nc1/C=N/Nc1ccccc1`, the GI50 in the experiment with CAKI-1 was 7.71 µM (inactive); in the experiment with HCT-116 it was 12.7 µM (inactive); in the experiment on HL-60, 31 µM (inactive); in the experiment with HOP-62, 15.9 µM (inactive); in the experiment on HOP-92, 17.5 µM (inactive); in the experiment with HT-29 it was 10.8 µM (inactive). Also, the GI50 is 7.6 µM (inactive) in the experiment on K562; 14.7 µM (inactive) with M14; 18 µM (inactive) in the experiment on NCI-H226; 13.9 µM (inactive) in the experiment on NCI-H460; 13.1 µM (inactive) in the experiment with SF-268; 17.5 µM (inactive) with SK-MEL-28. Moreover, the GI50 in the experiment with SK-MEL-5 was 19 µM (inactive); with SW-620 it was 14.9 µM (inactive).
With `COc1c(C(=O)c2ccc([N+](=O)[O-])cc2)cc(C(C)(C)C)cc1C(C)(C)C`, the GI50 was 41.6 µM (inactive) with CAKI-1; 18.8 µM (inactive) in the experiment on HCT-116; 13.9 µM (inactive) in the experiment with HL-60; 49.5 µM (inactive) with HOP-62; 28.7 µM (inactive) in the experiment with HT-29; 25.6 µM (inactive) with K562. Besides, the GI50 was 22.9 µM (inactive) in the experiment with M14; 32.4 µM (inactive) with NCI-H460; 12.6 µM (inactive) with RPMI-8226; 34.4 µM (inactive) in the experiment on SF-268; 22.8 µM (inactive) in the experiment with SK-MEL-28; 15.6 µM (inactive) in the experiment on SK-MEL-5. The GI50 in the experiment on SW-620 was 48.6 µM (inactive).
Consider `Cc1ccc(C2=CC(=O)c3ccccc3C2=O)n1-c1ccccc1`, for which the GI50 in the experiment on COLO 205 is > 100 µM (inactive); in the experiment on HCT-116, 62.1 µM (inactive); with HL-60, 32.8 µM (inactive); in the experiment on HOP-62, > 100 µM (inactive); in the experiment with HT-29, > 100 µM (inactive); in the experiment on K562 it was 53 µM (inactive). Besides, the GI50 in the experiment on M14 is > 100 µM (inactive); in the experiment with NCI-H226 it was 7.67 µM (inactive); in the experiment with NCI-H460 it was 48 µM (inactive); with RPMI-8226, 36.7 µM (inactive); in the experiment on SF-268, > 100 µM (inactive); with SK-MEL-28 it was > 100 µM (inactive). In addition, the GI50 in the experiment on SK-MEL-5 and in the experiment with SW-620 was > 100 µM (inactive) in each case.
On to `CN(C)c1ccc2c(NCCCCCCNc3ccnc4cc(N(C)C)ccc34)ccnc2c1`, for which the GI50 in the experiment with CAKI-1 is 42.6 µM (inactive); in the experiment with HCT-116, 6.55 µM (inactive); in the experiment on HL-60 it was 6.7 µM (inactive); with HOP-62, 19.2 µM (inactive); in the experiment on HT-29, 19.2 µM (inactive); with K562, 2.74 µM (inactive). Further, the GI50 was 22.6 µM (inactive) in the experiment with M14; 6.75 µM (inactive) in the experiment on NCI-H460; 28 µM (inactive) with SF-268; 14.3 µM (inactive) in the experiment on SK-MEL-28; 12.2 µM (inactive) in the experiment with SK-MEL-5; 23.3 µM (inactive) in the experiment with SW-620.
On to `COc1ccc(C[C@@H]2Cc3cc(OC)c(OC)cc3CN2C)cc1`, for which the GI50 with CAKI-1 is 59.7 µM (inactive); with HOP-62, > 100 µM (inactive); in the experiment with HT-29, > 100 µM (inactive); with K562, > 100 µM (inactive); with M14, > 100 µM (inactive); with NCI-H460, > 100 µM (inactive). The GI50 in the experiment with RPMI-8226, with SF-268, in the experiment with SK-MEL-28, with SK-MEL-5 and with SW-620 was > 100 µM (inactive) in each case.
As for `CN(C)c1ccc(-c2cc(O)c3cc4c(cc3n2)OCO4)cc1`, the GI50 was > 100 µM (inactive) in the experiment on COLO 205; > 100 µM (inactive) with HCT-116; > 100 µM (inactive) in the experiment with HL-60; 73.5 µM (inactive) in the experiment with HOP-62; > 100 µM (inactive) with HT-29; > 100 µM (inactive) in the experiment on K562. In addition, the GI50 in the experiment on M14, in the experiment on NCI-H226, with NCI-H460, with RPMI-8226, in the experiment on SF-268 and with SK-MEL-28 was > 100 µM (inactive) each time. In addition, the GI50 in the experiment on SK-MEL-5 and in the experiment with SW-620 was > 100 µM (inactive) each time.
